System: gray mold fungus (Botrytis cinerea)
Assay: Cucumber leaf disk preventive test against gray mold fungus (Test Examples 1 and 2, Reference Examples)
Type: in vivo
Conditions: 15° C., four days
Description: To a SUS beaker are added 30 parts of the present compound (racemate), 5 parts of Soprophor FLK (polyoxyethylene tristyrylphenyl ether phosphate, produced by Rhodia Nicca Ltd.), 65 parts of ion-exchange water and 150 parts of glass beads (1.0 mm diameter). The mixture is subjected to grinding at a velocity of 1000 rpm with cooling to 10° C., and thereafter the glass beads are separated, so as to obtain a flowable formulation comprising the present compound (racemate).
True leaf of cucumber is punched out with cork borer to 13 mm in diameter to prepare a leaf disk. In 24 well microwell plate that is dispensed with 1 ml 0.8% water agar, the leaf disk is placed such that the upper side of the leaf is in an upward direction. Thereto is added 20 micro liter a testing solution prepared by mixing the flowable formulation of the present compound (racemate) prepared by the above procedure and a commercial liquid formulation of validamycin or a commercial wettable powders of polyoxins to a predetermined concentration to treat the leaf disk.
After confirming that the testing medical solution is dried, conidium of gray mold fungus (Botrytis cinerea) is suspended into potato dextrose broth (DIFCO) in a density of about 10^5 conidium/mL and is then subjected to a spray inoculation. After leaving to stand the leaf disk in a growth chamber set up at 15° C. for four days, an onset area on the leaf is measured and then calculated an onset area rate (hereinafter, referred to as an onset area rate of treated group).
The same operation is carried out with 20 micro liter water instead of 20 micro liter a testing medicine solution to calculate an onset area rate (hereinafter, referred to an onset area rate of non-treated group).
A preventive value is calculated from the above onset area rate of treated group and the onset area rate of non-treated group by the following equation: Preventive value (%)=100×(A−B)/A
A: an onset area rate of treated group
B: an onset area rate of non-treated group
The same operations as described in Test Example 1 are carried out with kasugamycin or streptomycin instead of validamycin or polyoxins, so as to calculate respective preventive values.
Also for comparison, the same operations as described in Test Example 1 are carried out with the exception that the testing medicine solution is substituted with a predetermined concentration of either a flowable formulation of the present amide compound or a commercial wettable powder of kasugamycin or streptomycin, so as to calculate respective preventive values.
For comparison, the same operations as described in Test Example 1 are carried out with the exception that the testing medicine solution is substituted with a predetermined concentration of a solution of a wettable powder of validamycin or polyoxins, so as to calculate a preventive value.

[1] = antibiotic compound alone 0.5 ppm
[2] = antibiotic compound alone 5.0 ppm

Row | Compound | preventive value (%) [1] | preventive value (%) [2]
1 | C[C@H]1O[C@H](O[C@H]2[C@H](O)[C@@H](O)[C@@H](O)[C@H](O)[C@@H]2O)[C@@H](N)C[C@@H]1NC(=N)C(=O)O [kasugamycin] | 0% | 10%
2 | [H]/N=C(/N)N[C@H]1[C@H](O)[C@@H](O)[C@H](O[C@@H]2O[C@@H](C)[C@](O)(C=O)[C@H]2O[C@@H]2O[C@@H](CO)[C@H](O)[C@@H](O)[C@@H]2NC)[C@@H](N/C(N)=N\[H])[C@@H]1O [streptomycin] | 0% | 10%
3 | OCC1=C[C@H](N[C@H]2C[C@H](CO)[C@@H](O[C@@H]3O[C@H](CO)[C@@H](O)[C@H](O)[C@H]3O)[C@H](O)[C@H]2O)[C@H](O)[C@@H](O)[C@@H]1O [validamycin] | 5% | 10%
4 | polyoxins | 11% | 15%

Reference: patent US10051860B2, “Plant disease controlling composition and method for controlling plant disease” (SUMITOMO CHEMICAL COMPANY, LIMITED, priority 2010, dated 2018)
